According to patent US11708562B2, “Differentiation of human embryonic stem cells” (Janssen Biotech, Inc., priority 2006, dated 2023):

Tested on: H9P33, H9P44 and H9P48 cells
Assay: Microarray analysis of definitive endoderm on MEFs vs MATRIGEL +/- Wnt-3A (Table VI)
Description: Controls for each group included cells plated on […]-coated dishes and cultured in MEF-conditioned medium or cells plated on MEFs and cultured in ES medium. All groups contained three biological replicates and each biological replicate was repeated on two separate gene chips.
Sample preparation, hybridization, and image analysis were performed according to the Affymetrix Human Genome U133 Plus 2.0 Array. Following normalization and a log transformation, data analysis was performed using OmniViz® software (MA) and […] (VizXLabs, WA). Significant differences in gene expression between the samples were evaluated using analysis of variance and an F-test with adjusted P-value (Benjamini and Hochberg correction) of ≤0.05. Only genes with a present call in at least one group were included in the analysis.

[1] = DE treatment in low serum, on MEFS
[2] = log format, DE treatment in low serum + AA on MATRIGEL

With “Activin A: a member of the TGFβ superfamily; growth factor (R&D Systems) used to differentiate human embryonic stem cells” the “mean normalized intensity (log format), Homo sapiens glycophorin Erik STA (GPErik) gene” value [1] was −0.4544, the “mean normalized intensity (log format), Homo sapiens growth differentiation factor 3 (GDF3), mRNA” value [1] was 2.875 and the “mean normalized intensity (log format), Homo sapiens haptoglobin (HP), mRNA” value [1] was 0.477. The “mean normalized intensity (log format), Homo sapiens haptoglobin-related protein (HPR), mRNA” value [1] was −1.196, the “mean normalized intensity (log format), Homo sapiens homeobox protein goosecoid mRNA, complete cds” value [1] was 1.894 and the “mean normalized intensity (log format), Homo sapiens hypothetical protein FLJ10718 (FLJ10718), mRNA” value [1] was 5.552. For the same substance, the “mean normalized intensity (log format), Homo sapiens hypothetical protein FLJ10970 (FLJ10970), mRNA” value [1] was 3.02, the “mean normalized intensity (log format), Homo sapiens hypothetical protein FLJ11316 (FLJ11316), mRNA” value [1] was 0.7553 and the “mean normalized intensity (log format), Homo sapiens hypothetical protein FLJ22252 similar to SRY-box containing gene 17 (FLJ22252), mRNA” value [1] was 4.5979. The “mean normalized intensity (log format), Homo sapiens hypothetical protein FLJ23403 (FLJ23403), mRNA” value [1] was −1.004, the “mean normalized intensity (log format), Homo sapiens lumican (LUM), mRNA” value [1] was 0.9488 and the “mean normalized intensity (log format), Homo sapiens mRNA for GATA-6, complete cds” value [1] was 5.343. The “mean normalized intensity (log format), Homo sapiens mRNA for KIAA1409 protein, partial cds” value [1] was −1.032, the “mean normalized intensity (log format), Homo sapiens mRNA; cDNA DKFZp434D0818 (from clone DKFZp434D0818)” value [1] was −0.3056 and the “mean normalized intensity (log format), Homo sapiens mRNA; cDNA DKFZp586J0624 (from clone DKFZp586J0624)” value [1] was 3.699. For the same substance, the “mean normalized intensity (log format), Homo sapiens matrix metalloproteinase 14 (membrane-inserted) (MMP14), mRNA” value [1] was −0.09689, the “mean normalized intensity (log format), Homo sapiens phorbolin-like protein MDS019 (MDS019), mRNA” value [1] was 2.408 and the “mean normalized intensity (log format), Homo sapiens presenilin stabilization factor b (PSF) mRNA” value [1] was 0.5675. The “mean normalized intensity (log format), Homo sapiens reserved (KCNK12), mRNA” value [1] was 3.78, the “mean normalized intensity (log format), Homo sapiens retinoid X receptor, gamma (RXRG), mRNA” value [1] was −0.3204 and the “mean normalized intensity (log format), Homo sapiens sema domain, immunoglobulin domain (Ig), short basic domain, secreted, (semaphorin) 3E (SEMA3E), mRNA” value [1] was 1.276. The “mean normalized intensity (log format), Homo sapiens sema domain, seven thrombospondin repeats, (semaphorin) 5A (SEMA5A), mRNA” value [1] was 1.487, the “mean normalized intensity (log format), Homo sapiens solute carrier family 16 (monocarboxylic acid transporters), member 3 (SLC16A3), mRNA” value [1] was 1.724 and the “mean normalized intensity (log format), Homo sapiens solute carrier family 21 (prostaglandin transporter), member 2 (SLC21A2), mRNA” value [1] was 2.433. The “mean normalized intensity (log format), Homo sapiens type VI collagen alpha 2 chain precursor (COL6A2) mRNA” value [1] was 2.845, the “mean normalized intensity (log format), Homo sapiens, alpha-1 (VI) collagen” value [1] was −2.269 and the “mean normalized intensity (log format), Homo sapiens, clone MGC: 4655, mRNA” value [1] was 2.476. For the same substance, the “mean normalized intensity (log format), Human (clone 8B1) Br-cadherin mRNA” value [1] was −1.026, the “mean normalized intensity (log format), Human (clone HSY3RR) neuropeptide Y receptor (NPYR) mRNA” value [1] was 5.48 and the “mean normalized intensity (log format), Human DNA sequence from clone RP1-181C24 on chromosome 6p11.1-12.2 (3 end of the BMP5 gene)” value [1] was −0.3731. For the same substance, the “mean normalized intensity (log format), Human Fritz mRNA, complete cds” value [1] was 3.915, the “mean normalized intensity (log format), Human dipeptidyl peptidase IV (CD26) mRNA” value [1] was −1.256 and the “mean normalized intensity (log format), Human glycophorin HeP2 mRNA, partial cds” value [1] was 0.2335. The “mean normalized intensity (log format), Human link protein mRNA, complete cds” value [1] was −1.263, the “mean normalized intensity (log format), Human mRNA for alpha-1 type II collagen” value [1] was −0.3802 and the “mean normalized intensity (log format), Human mRNA for apolipoprotein AI (apo AI)” value [1] was 2.497. For the same substance, the “mean normalized intensity (log format), Human prostatic secretory protein 57 mRNA” value [1] was −0.4077, the “mean normalized intensity (log format), KIAA0878 protein” value [1] was 4.789 and the “mean normalized intensity (log format), KIAA1462 protein” value [1] was 0.4371. The “mean normalized intensity (log format), MCP-1 = monocyte chemotactic protein” value [1] was 2.955, the “mean normalized intensity (log format), Rho GDP dissociation inhibitor (GDI) alpha” value [1] was −2.582 and the “mean normalized intensity (log format), WAS protein family, member 2” value [1] was −1.06. The “mean normalized intensity (log format), collagen, type IX, alpha 2” value [1] was 2.935, the “mean normalized intensity (log format), collagen, type VI, alpha 1” value [1] was 0.6042 and the “mean normalized intensity (log format), glycophorin B (includes Ss blood group)” value [1] was −0.1297. For the same substance, the “mean normalized intensity (log format), hepatocyte nuclear factor 4, alpha” value [1] was 0.4452, the “mean normalized intensity (log format), homeo box HB9” value [1] was 1.631 and the “mean normalized intensity (log format), hypothetical protein FLJ21032” value [1] was 2.618. The “mean normalized intensity (log format), hypothetical protein FLJ23091” value [1] was 3.78, the “mean normalized intensity (log format), hypothetical protein FLJ23403” value [1] was −2.313 and the “mean normalized intensity (log format), matrix metalloproteinase 14 (membrane-inserted)” value [1] was −0.5185. For the same substance, the “mean normalized intensity (log format), microfibrillar-associated protein 4” value [1] was −0.6009, the “mean normalized intensity (log format), myristoylated alanine-rich protein kinase C substrate (MARCKS, 80K-L)” value [1] was 0.3357 and the “mean normalized intensity (log format), neuropilin 1” value [1] was −1.9667. For the same substance, the “mean normalized intensity (log format), noggin” value [1] was 1.33, the “mean normalized intensity (log format), phorbolin-like protein MDS019” value [1] was 0.5035 and the “mean normalized intensity (log format), solute carrier family 16 (monocarboxylic acid transporters), member 3” value [1] was 0.279. For the same substance, the “mean normalized intensity (log format), splicing factor, arginineserine-rich 5” value [1] was 4.272, the “mean normalized intensity (log format), stanniocalcin 1” value [1] was 6.143 and the “mean normalized intensity: DKFZP566K1924 protein” value [2] was 2.882. The “mean normalized intensity: ESTs, Moderately similar to ALU2_HUMAN ALU SUBFAMILY SB SEQUENCE CONTAMINATION WARNING ENTRY (H. sapiens)” value [2] was 4.241, the “mean normalized intensity: H. sapiens mRNA for B-HLH DNA binding protein.” value [2] was 5.43 and the “mean normalized intensity: Homo sapiens BCL2-interacting killer (apoptosis-inducing) (BIK), mRNA.” value [2] was 4.3. The “mean normalized intensity: Homo sapiens Charot-Leyden crystal protein (CLC), mRNA.” value [2] was 3.301, the “mean normalized intensity: Homo sapiens HES-related repressor protein 1 HERP1 mRNA, complete cds.” value [2] was 2.806 and the “mean normalized intensity: Homo sapiens HSPC156 protein (HSPC156), mRNA.” value [2] was 0.7862. For the same substance, the “mean normalized intensity: Homo sapiens KIAA0469 gene product (KIAA0469), mRNA.” value [2] was 4.031, the “mean normalized intensity: Homo sapiens PNAS-123 mRNA, complete cds” value [2] was 1.597 and the “mean normalized intensity: Homo sapiens Wilms tumor 1 (WT1), transcript variant D, mRNA.” value [2] was 2.405. For the same substance, the “mean normalized intensity: Homo sapiens cDNA FLJ11398 fis, clone HEMBA1000637.” value [2] was 2.5268, the “mean normalized intensity: Homo sapiens cDNA: FLJ22547 fis, clone HSI00356” value [2] was 4.294 and the “mean normalized intensity: Homo sapiens cadherin 6, type 2, K-cadherin (fetal kidney) (CDH6), mRNA.” value [2] was 0.8248.
